Experimental data as given in patent publication US9617244B2, “Antibacterial quinoline derivatives” (JANSSEN PHARMACEUTICA NV, priority 2012, dated 2017).
≈ marks a conversion by molar mass, not a printed value.

These compounds were tested on Staphylococcus aureus (ATCC29213) (assay: In-vitro anti-bacterial activity, microtitre plate assay, IC90 determination (non-mycobacterial strains)). Conditions: 90% inhibitory concentration for bacterial growth, 24 hours, resazurin fluorescence.
Assay type: cell-based
In short: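 Inoculum of about 100 TCID50 (10–60 CFU/well) in Mueller-Hinton broth, serial five-fold compound dilutions, 24 h at 37 °C in air. Growth read by resazurin fluorescence (ex 530/em 590 nm); IC90 in μg/ml as 90% growth inhibition.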

IC90 STA B29213	Compound
6.88 µg/mL (≈ 13.5 µM)	CSc1ccc2[nH]c(=O)c(C(c3ccc(Cl)cc3)C3(O)CCNC(CC4CCCCC4)C3)cc2c1 (stereo not drawn) [Compound 298]
3.45 µg/mL (≈ 6.75 µM)	Cc1cc(F)ccc1C1CC(O)(C(c2ccc(Cl)cc2)c2cc3cc(Cl)ccc3[nH]c2=O)CCN1 (stereo not drawn) [Compound 304]
18.76 µg/mL (≈ 32 µM)	COc1nc2ccc(S(C)(=O)=O)cc2cc1C(c1ccc(Cl)cc1)C1(O)CCNC(Cc2ccc(F)cc2F)C1 (stereo not drawn) [Compound 305]
4.70 µg/mL (≈ 8.01 µM)	COc1nc2ccc(S(C)(=O)=O)cc2cc1C(c1ccc(Cl)cc1)C1(O)CCNC(Cc2ccc(F)cc2F)C1 (stereo not drawn) [Compound 306]
>15.12 µg/mL	CS(=O)(=O)c1ccc2[nH]c(=O)c(C(c3cccc(Cl)c3)C3(O)CCNC(Cc4ccc(F)cc4F)C3)cc2c1 (stereo not drawn) [Compound 307]
7.65 µg/mL (≈ 13.3 µM)	CS(=O)(=O)c1ccc2[nH]c(=O)c(C(c3cccc(Cl)c3)C3(O)CCNC(Cc4ccc(F)cc4F)C3)cc2c1 (stereo not drawn) [Compound 308]
14.50 µg/mL (≈ 26.8 µM)	CSc1ccc2[nH]c(=O)c(C(c3cccc(Cl)c3)C3(O)CCNC(Cc4ccc(F)cc4F)C3)cc2c1 (stereo not drawn) [Compound 309]
3.62 µg/mL (≈ 6.69 µM)	CSc1ccc2[nH]c(=O)c(C(c3cccc(Cl)c3)C3(O)CCNC(Cc4ccc(F)cc4F)C3)cc2c1 (stereo not drawn) [Compound 310]
7.24 µg/mL (≈ 13.4 µM)	CSc1ccc2[nH]c(=O)c(C(c3cccc(Cl)c3)C3(O)CCNC(Cc4ccc(F)cc4F)C3)cc2c1 (stereo not drawn) [Compound 311]
3.62 µg/mL (≈ 6.69 µM)	CSc1ccc2[nH]c(=O)c(C(c3cccc(Cl)c3)C3(O)CCNC(Cc4ccc(F)cc4F)C3)cc2c1 (stereo not drawn) [Compound 312]
3.05 µg/mL (≈ 5.31 µM)	O=c1[nH]c2ccc(Br)cc2cc1C(c1ccc(Cl)cc1)C1(O)CCNC(Cc2ccc(F)cc2F)C1 (stereo not drawn) [Compound 314]
3.84 µg/mL (≈ 6.69 µM)	O=c1[nH]c2ccc(Br)cc2cc1C(c1ccc(Cl)cc1)C1(O)CCNC(Cc2ccc(F)cc2F)C1 (stereo not drawn) [Compound 315]
3.84 µg/mL (≈ 6.69 µM)	O=c1[nH]c2ccc(Br)cc2cc1C(c1ccc(Cl)cc1)C1(O)CCNC(Cc2ccc(F)cc2F)C1 (stereo not drawn) [Compound 316]
1.92 µg/mL (≈ 3.35 µM)	O=c1[nH]c2ccc(Br)cc2cc1C(c1ccc(Cl)cc1)C1(O)CCNC(Cc2ccc(F)cc2F)C1 (stereo not drawn) [Compound 317]
2.40 µg/mL (≈ 4.08 µM)	COc1nc2ccc(Br)cc2cc1C(c1ccc(Cl)cc1)C1(O)CCNC(Cc2ccc(F)cc2F)C1 (stereo not drawn) [Compound 319]
15.33 µg/mL (≈ 26.7 µM)	O=c1[nH]c2ccc(Br)cc2cc1C(c1ccc(Cl)cc1)C1(O)CCNC(Cc2ccc(F)cc2F)C1 (stereo not drawn) [Compound 321]
2.43 µg/mL (≈ 4.23 µM)	O=c1[nH]c2ccc(Br)cc2cc1C(c1ccc(Cl)cc1)C1(O)CCNC(Cc2ccc(F)cc2F)C1 (stereo not drawn) [Compound 322]
7.68 µg/mL (≈ 13.4 µM)	O=c1[nH]c2ccc(Br)cc2cc1C(c1ccc(Cl)cc1)C1(O)CCNC(Cc2ccc(F)cc2F)C1 (stereo not drawn) [Compound 323]
1.93 µg/mL (≈ 3.36 µM)	O=c1[nH]c2ccc(Br)cc2cc1C(c1ccc(Cl)cc1)C1(O)CCNC(Cc2ccc(F)cc2F)C1 (stereo not drawn) [Compound 324]

Same assay, conditions: Staphylococcus aureus, ATCC29213, 24 h, 90% inhibitory concentration for bacterial growth, resazurin fluorescence, read-out: IC90 STA B29213

IC90	Compound
6.88 µg/mL (≈ 13.5 µM)	Cc1cc(F)ccc1C1CC(O)(C(c2ccc(Cl)cc2)c2cc3cc(Cl)ccc3[nH]c2=O)CCN1 (stereo not drawn) [Compound 303]
2.4 µg/mL (≈ 4.08 µM)	COc1nc2ccc(Br)cc2cc1C(c1ccc(Cl)cc1)C1(O)CCNC(Cc2ccc(F)cc2F)C1 (stereo not drawn) [Compound 313]

Each compound was assayed on Mycobacterium smegmatis (ATCC607) (assay: In-vitro anti-bacterial activity against strain M. Smegmatis ATCC607). Conditions: 90% inhibitory concentration for bacterial growth, 48 hours, Alamar Blue fluorescence.
Assay type: cell-based
In short: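 Serial five-fold compound dilutions in BSA-supplemented wells, inoculated with ~250 CFU/well in Mueller-Hinton broth, incubated 48 h at 37 °C, 5% CO2. Growth read by Alamar Blue fluorescence (ex 530/em 590 nm); IC90 in μg/ml.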

IC90 MSM 607	Compound
6.88 µg/mL (≈ 13.5 µM)	CSc1ccc2[nH]c(=O)c(C(c3ccc(Cl)cc3)C3(O)CCNC(CC4CCCCC4)C3)cc2c1 (stereo not drawn) [Compound 298]
5.47 µg/mL (≈ 10.7 µM)	Cc1cc(F)ccc1C1CC(O)(C(c2ccc(Cl)cc2)c2cc3cc(Cl)ccc3[nH]c2=O)CCN1 (stereo not drawn) [Compound 303]
1.73 µg/mL (≈ 3.38 µM)	Cc1cc(F)ccc1C1CC(O)(C(c2ccc(Cl)cc2)c2cc3cc(Cl)ccc3[nH]c2=O)CCN1 (stereo not drawn) [Compound 304]
18.76 µg/mL (≈ 32 µM)	COc1nc2ccc(S(C)(=O)=O)cc2cc1C(c1ccc(Cl)cc1)C1(O)CCNC(Cc2ccc(F)cc2F)C1 (stereo not drawn) [Compound 305]
4.70 µg/mL (≈ 8.01 µM)	COc1nc2ccc(S(C)(=O)=O)cc2cc1C(c1ccc(Cl)cc1)C1(O)CCNC(Cc2ccc(F)cc2F)C1 (stereo not drawn) [Compound 306]
>15.12 µg/mL	CS(=O)(=O)c1ccc2[nH]c(=O)c(C(c3cccc(Cl)c3)C3(O)CCNC(Cc4ccc(F)cc4F)C3)cc2c1 (stereo not drawn) [Compound 307]
6.08 µg/mL (≈ 10.6 µM)	CS(=O)(=O)c1ccc2[nH]c(=O)c(C(c3cccc(Cl)c3)C3(O)CCNC(Cc4ccc(F)cc4F)C3)cc2c1 (stereo not drawn) [Compound 308]
11.52 µg/mL (≈ 21.3 µM)	CSc1ccc2[nH]c(=O)c(C(c3cccc(Cl)c3)C3(O)CCNC(Cc4ccc(F)cc4F)C3)cc2c1 (stereo not drawn) [Compound 309]
3.62 µg/mL (≈ 6.69 µM)	CSc1ccc2[nH]c(=O)c(C(c3cccc(Cl)c3)C3(O)CCNC(Cc4ccc(F)cc4F)C3)cc2c1 (stereo not drawn) [Compound 310]
3.63 µg/mL (≈ 6.71 µM)	CSc1ccc2[nH]c(=O)c(C(c3cccc(Cl)c3)C3(O)CCNC(Cc4ccc(F)cc4F)C3)cc2c1 (stereo not drawn) [Compound 311]
3.62 µg/mL (≈ 6.69 µM)	CSc1ccc2[nH]c(=O)c(C(c3cccc(Cl)c3)C3(O)CCNC(Cc4ccc(F)cc4F)C3)cc2c1 (stereo not drawn) [Compound 312]
1.91 µg/mL (≈ 3.25 µM)	COc1nc2ccc(Br)cc2cc1C(c1ccc(Cl)cc1)C1(O)CCNC(Cc2ccc(F)cc2F)C1 (stereo not drawn) [Compound 313]
4.83 µg/mL (≈ 8.42 µM)	O=c1[nH]c2ccc(Br)cc2cc1C(c1ccc(Cl)cc1)C1(O)CCNC(Cc2ccc(F)cc2F)C1 (stereo not drawn) [Compound 314]
3.84 µg/mL (≈ 6.69 µM)	O=c1[nH]c2ccc(Br)cc2cc1C(c1ccc(Cl)cc1)C1(O)CCNC(Cc2ccc(F)cc2F)C1 (stereo not drawn) [Compound 315]
3.05 µg/mL (≈ 5.31 µM)	O=c1[nH]c2ccc(Br)cc2cc1C(c1ccc(Cl)cc1)C1(O)CCNC(Cc2ccc(F)cc2F)C1 (stereo not drawn) [Compound 316]
1.92 µg/mL (≈ 3.35 µM)	O=c1[nH]c2ccc(Br)cc2cc1C(c1ccc(Cl)cc1)C1(O)CCNC(Cc2ccc(F)cc2F)C1 (stereo not drawn) [Compound 317]
2.40 µg/mL (≈ 4.08 µM)	COc1nc2ccc(Br)cc2cc1C(c1ccc(Cl)cc1)C1(O)CCNC(Cc2ccc(F)cc2F)C1 (stereo not drawn) [Compound 319]
12.18 µg/mL (≈ 21.2 µM)	O=c1[nH]c2ccc(Br)cc2cc1C(c1ccc(Cl)cc1)C1(O)CCNC(Cc2ccc(F)cc2F)C1 (stereo not drawn) [Compound 321]
3.85 µg/mL (≈ 6.71 µM)	O=c1[nH]c2ccc(Br)cc2cc1C(c1ccc(Cl)cc1)C1(O)CCNC(Cc2ccc(F)cc2F)C1 (stereo not drawn) [Compound 322]
6.10 µg/mL (≈ 10.6 µM)	O=c1[nH]c2ccc(Br)cc2cc1C(c1ccc(Cl)cc1)C1(O)CCNC(Cc2ccc(F)cc2F)C1 (stereo not drawn) [Compound 323]
3.43 µg/mL (≈ 5.98 µM)	O=c1[nH]c2ccc(Br)cc2cc1C(c1ccc(Cl)cc1)C1(O)CCNC(Cc2ccc(F)cc2F)C1 (stereo not drawn) [Compound 324]
